Assay results as given in US9260408B2, “Dihydroquinoline-2-one derivatives” (Hoffmann-La Roche Inc., priority 2011, dated 2016).
Counter-ions that a name gives are not always drawn.

Experiments:
[1] = target: T1, human CYP11B1 (Homo sapiens, UniProt P15538); assay: G-402 cellular enzyme assay, human CYP11B1 (cortisol release, HTRF); assay type: cell-based; conditions: G-402 cells expressing human CYP11B1; 1 μM Deoxycortisol
T1 construct: expressed in transfected cells
T1 sequence (P15538 25-503): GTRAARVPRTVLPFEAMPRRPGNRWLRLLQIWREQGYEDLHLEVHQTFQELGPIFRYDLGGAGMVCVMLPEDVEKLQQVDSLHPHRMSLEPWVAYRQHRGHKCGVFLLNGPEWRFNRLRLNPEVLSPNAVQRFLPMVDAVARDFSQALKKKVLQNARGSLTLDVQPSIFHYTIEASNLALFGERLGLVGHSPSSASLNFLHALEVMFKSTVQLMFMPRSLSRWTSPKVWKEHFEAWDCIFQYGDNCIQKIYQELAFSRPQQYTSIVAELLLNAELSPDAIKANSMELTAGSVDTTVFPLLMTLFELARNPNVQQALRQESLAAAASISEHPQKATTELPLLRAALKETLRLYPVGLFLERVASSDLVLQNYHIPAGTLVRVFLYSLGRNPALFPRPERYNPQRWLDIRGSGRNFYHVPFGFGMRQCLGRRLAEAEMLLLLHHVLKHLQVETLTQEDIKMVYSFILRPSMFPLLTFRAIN
Outline: (§1)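 EC50 comes from least-squares fitting of a 4-parameter MMF curve to steroid product levels, measured by HTRF as aldosterone for CYP11B2 or cortisol for CYP11B1. Stably transfected G-402 host cells were given substrate (1 μM deoxycorticosterone or deoxycortisol, respectively) with inhibitor for 16 h in medium with 2.5% charcoal-treated FCS.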

[2] = target: T2, human CYP11B2 (Homo sapiens, UniProt P19099); assay: G-402 cellular enzyme assay, human CYP11B2 (aldosterone release, HTRF); assay type: cell-based; conditions: G-402 cells expressing human CYP11B2; 1 μM Deoxycorticosterone
T2 construct: expressed in transfected cells
T2 sequence (P19099 25-503): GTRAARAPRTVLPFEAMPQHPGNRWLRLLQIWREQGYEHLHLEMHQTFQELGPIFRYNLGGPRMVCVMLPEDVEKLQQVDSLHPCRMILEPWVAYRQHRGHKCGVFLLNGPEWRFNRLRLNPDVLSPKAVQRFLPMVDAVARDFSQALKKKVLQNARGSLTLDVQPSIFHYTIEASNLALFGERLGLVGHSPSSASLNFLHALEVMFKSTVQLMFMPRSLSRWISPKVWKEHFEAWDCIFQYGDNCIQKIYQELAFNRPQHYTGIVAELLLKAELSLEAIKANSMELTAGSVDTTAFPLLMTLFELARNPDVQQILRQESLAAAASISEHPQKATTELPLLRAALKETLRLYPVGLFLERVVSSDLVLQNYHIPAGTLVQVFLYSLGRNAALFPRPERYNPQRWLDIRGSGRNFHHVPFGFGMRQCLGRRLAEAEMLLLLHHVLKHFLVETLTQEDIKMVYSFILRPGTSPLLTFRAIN
Outline: as §1

EC50 [1] [nM]	EC50 [2] [nM]	Compound
526	34	CN1C(=O)CCc2cc(-c3cncc(CNC(=O)c4coc(C(F)(F)F)c4)c3)ccc21 [Example 84]
51	9	Cc1cccnc1C(=O)NC1(c2cncc(-c3ccc4c(c3)CCC(=O)N4C)c2)CC1 [Example 143]
4800	29	CN1C(=O)CCc2cc(-c3cncc(CNC(=O)c4cc(Cl)nnc4Cl)c3)c(F)cc21 [Example 132]
401	21	Cc1c(-c2ccc3c(c2)CCC(=O)N3C)cncc1C(C)N[S@+]([O-])C(C)(C)C (single isomer, unassigned) [Example 239, (R)-2-Methyl-propane-2-sulfinic acid {(R or S)-1-[4-methyl-5-(1-methyl-2-oxo-1,2,3,4-tetrahydro-quinolin-6-yl)-pyridin-3-yl]-ethyl}-amide]
94	10	CN1C(=O)CCc2cc(-c3cncc(CNC(=O)c4ccc(Cl)nn4)c3)ccc21 [Example 104]
7670	160	CN1C(=O)CCc2cc(-c3cncc(O[C@@H]4CCNC4)c3)c(F)cc21 [Example 67, 7-Fluoro-1-methyl-6-[5-((R)-pyrrolidin-3-yloxy)-pyridin-3-yl]-3,4-dihydro-1H-quinolin-2-one hydrochloride]
19900	856	Cc1noc(C)c1C(=O)NCc1cncc(-c2ccc3c(c2)CCC(=O)N3)c1 [Example 141, 3,5-Dimethyl-isoxazole-4-carboxylic acid [5-(2-oxo-1,2,3,4-tetrahydro-quinolin-6-yl)-pyridin-3-ylmethyl]-amide]
29200	416	CN1C(=O)CCc2nc(-c3cccnc3)ccc21 [Example 34, 1-Methyl-6-pyridin-3-yl-3,4-dihydro-1H-[1,5]naphthyridin-2-one]
93	2	CN1C(=O)CCc2cc(-c3cncc(OCCN4CCCS4(=O)=O)c3)ccc21 [Example 189, 6-{5-[2-(1,1-Dioxo-1λ^6-isothiazolidin-2-yl)-ethoxy]-pyridin-3-yl}-1-methyl-3,4-dihydro-1H-quinolin-2-one]
207	9	CCS(=O)(=O)N1CC[C@H](Oc2cncc(-c3ccc4c(c3)CCC(=O)N4C)c2)C1 [Example 164, 6-[5-((S)-1-Ethanesulfonyl-pyrrolidin-3-yloxy)-pyridin-3-yl]-1-methyl-3,4-dihydro-1H-quinolin-2-one]
1590	44	CCC(=O)NCc1cncc(-c2ccc3c(c2)CCC(=O)N3C)c1 [Example 37, N-[5-(1-Methyl-2-oxo-1,2,3,4-tetrahydro-quinolin-6-yl)-pyridin-3-ylmethyl]-propionamide]
48	3	CN1C(=O)CCc2cc(-c3cncc(CNC(=O)c4cccnn4)c3)ccc21 [Example 85]
834	41	CCC(=O)NC(C)c1cncc(-c2cc3c(cc2F)N(C)C(=O)CC3)c1 (racemic) [Example 213, (rac)-N-{1-[5-(7-Fluoro-1-methyl-2-oxo-1,2,3,4-tetrahydro-quinolin-6-yl)-pyridin-3-yl]-ethyl}-propionamide]
3690	100	Cc1noc(C)c1C(=O)NC(C)c1cncc(-c2ccc3c(c2)CCC(=O)N3C)c1C (single isomer, unassigned) [Example 242, 3,5-Dimethyl-isoxazole-4-carboxylic acid {(R or S)-1-[4-methyl-5-(1-methyl-2-oxo-1,2,3,4-tetrahydro-quinolin-6-yl)-pyridin-3-yl]-ethyl}-amide]
8460	117	CCS(=O)(=O)NC(c1cncc(-c2ccc3c(c2)CCC(=O)N3C)c1)C1CC1 (racemic) [Example 177, (rac)-Ethanesulfonic acid {cyclopropyl-[5-(1-methyl-2-oxo-1,2,3,4-tetrahydro-quinolin-6-yl)-pyridin-3-yl]-methyl}-amide]
1370	19	CCC(=O)N1CC[C@@H](Oc2cncc(-c3ccc4c(c3)CCC(=O)N4C)c2)C1 [Example 121]
1980	29	CCS(=O)(=O)NCc1cncc(-c2cc3c(cc2F)N(C)C(=O)CC3)c1C [Example 192, Ethanesulfonic acid [5-(7-fluoro-1-methyl-2-oxo-1,2,3,4-tetrahydro-quinolin-6-yl)-4-methyl-pyridin-3-ylmethyl]-amide]

EC50 [1] [nM]	EC50 [2] [nM]	Compound
6650	114	O=C1CCc2cc(-c3cncc(CNC(=O)c4ncccc4Cl)c3)ccc2N1 [Example 140, 3-Chloro-pyridine-2-carboxylic acid [5-(2-oxo-1,2,3,4-tetrahydro-quinolin-6-yl)-pyridin-3-ylmethyl]-amide]
360	11	Cc1nn(C)cc1C(=O)NCc1cncc(-c2ccc3c(c2)CCC(=O)N3C)c1 [Example 98]
90	5	CCS(=O)(=O)NCCOc1cncc(-c2ccc3c(c2)CCC(=O)N3C)c1 [Example 151, ethanesulfonic acid {2-[5-(1-methyl-2-oxo-1,2,3,4-tetrahydro-quinolin-6-yl)-pyridin-3-yloxy]-ethyl}-amide]
69	1	CCS(=O)(=O)N[C@H]1CC[C@H](Oc2cncc(-c3ccc4c(c3)CCC(=O)N4C)c2)CC1 [Example 172, Ethanesulfonic acid {(trans)-4-[5-(1-methyl-2-oxo-1,2,3,4-tetrahydro-quinolin-6-yl)-pyridin-3-yloxy]-cyclohexyl}-amide]
780	121	CN1C(=O)CCc2cc(-c3cncc(N4CC5(CN(C(=O)OC(C)(C)C)C5)C4)n3)ccc21 [Example 28, 6-[6-(1-methyl-2-oxo-1,2,3,4-tetrahydro-quinolin-6-yl)-pyrazin-2-yl]-2,6-diaza-spiro[3.3]heptane-2-carboxylic acid tert-butyl ester]
837	10	CCC(=O)N1CC[C@@H](Oc2cncc(-c3cc4c(cc3F)N(C)C(=O)CC4)c2)C1 [Example 133]
587	40	CC(N[S@+]([O-])C(C)(C)C)c1cncc(-c2ccc3c(c2)CCC(=O)N3C)c1 (single isomer, unassigned) [Example 56, (R)-2-Methyl-propane-2-sulfinic acid {(S or R)-1-[5-(1-methyl-2-oxo-1,2,3,4-tetrahydro-quinolin-6-yl)-pyridin-3-yl]-ethyl}-amide]
2930	15	CN1C(=O)CCc2cc(-c3cncc(OCCNC(=O)c4cnn(C)c4)c3)ccc21 [Example 103]
898	18	CCS(=O)(=O)N1CCC[C@H]1COc1cncc(-c2ccc3c(c2)CCC(=O)N3C)c1 [Example 167, 6-[5-((S)-1-Ethanesulfonyl-pyrrolidin-2-ylmethoxy)-pyridin-3-yl]-1-methyl-3,4-dihydro-1H-quinolin-2-one]
28	3	Cc1cccnc1C(=O)N(C)Cc1cncc(-c2ccc3c(c2)CCC(=O)N3C)c1 [Example 199, 3-Methyl-pyridine-2-carboxylic acid methyl-[5-(1-methyl-2-oxo-1,2,3,4-tetrahydro-quinolin-6-yl)-pyridin-3-ylmethyl]-amide]
1200	19	CCS(=O)(=O)NCc1cncc(-c2ccc3c(c2)CCC(=O)N3C)c1 [Example 15]
3070	43	CN1C(=O)CCc2cc(-c3cncc(OC[C@@H]4CCN4C(=O)C4CC4)c3)ccc21 [Example 91]
1120	35	CN1C(=O)CCc2cc(-c3cncc(CNC(=O)c4ncccn4)c3)ccc21 [Example 99]
1440	14	Cc1noc(C)c1C(=O)NCCOc1cncc(-c2ccc3c(c2)CCC(=O)N3C)c1 [Example 102]
1430	114	Cc1noc(C)c1S(=O)(=O)NCc1cncc(-c2ccc3c(c2)CCC(=O)N3C)c1 [Example 154, 3,5-Dimethyl-isoxazole-4-sulfonic acid [5-(1-methyl-2-oxo-1,2,3,4-tetrahydro-quinolin-6-yl)-pyridin-3-ylmethyl]-amide]
710	33	CN1C(=O)CCc2cc(-c3cncc(C4(N)CC4)c3)ccc21 [Example 59, 6-[5-(1-Amino-cyclopropyl)-pyridin-3-yl]-1-methyl-3,4-dihydro-1H-quinolin-2-one]
